In PubChem BioAssay (NCI) one finds GI50 and TGI data, which are given here for ten compounds.

Some test systems named below: HS 578T breast; HL-60(TB) leukemia; A498 renal; MDA-MB-435; SF-268 CNS; T-47D breast; HCT-15 colon; OVCAR-3 ovarian.
Holding throughout (experiment): NCI-60 cell line screen, 48 h

“And” between values parts separate entries of the source, which are not always exact repeats. Equal values may be shown once.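 In this assay, cells in 96-well plates receive the compound at five concentrations for 48 hours. Endpoints are linearly interpolated between the surrounding concentrations. GI50: concentration for 50% inhibition of growth. Definition used: TGI = concentration required for complete inhibition of growth.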 Some results are limits rather than exact numbers.

Regarding `CN1CCN(CCOc2ccc(-c3cnc4c(-c5ccc(F)cc5)cnn4c3)cc2)CC1`, the GI50 is 1.49 µM in the assay on HS 578T breast; 2.09 µM with HL-60(TB) leukemia; 1.64 µM with A498 renal; 1.73 µM with MDA-MB-435; 2.03 µM in the assay with SF-268 CNS; 1.49 µM in the assay with T-47D breast. For the same compound, the GI50 in the assay on HCT-15 colon is 1.32 µM; in the assay on OVCAR-3 ovarian, 1.68 µM. Besides, the TGI in the assay on HS 578T breast stood at 4.53 µM; in the assay with HL-60(TB) leukemia it was 4.47 µM; in the assay on A498 renal it was 4.89 µM; in the assay with MDA-MB-435, 3.18 µM; in the assay on SF-268 CNS, 5.31 µM; in the assay with T-47D breast, 3.86 µM. Further, the TGI came to 2.75 µM in the assay on HCT-15 colon and 3.35 µM in the assay with OVCAR-3 ovarian.
Turning to `COC(=O)[C@]12CC[C@@H](C)[C@H](C)[C@@H]1C1=CC[C@@H]3[C@@]4(C)CC(=O)[C@H](OC(=O)c5ccco5)[C@@]5(C)COC(=C45)C[C@@]3(C)[C@]1(C)CC2`, the GI50 in the assay with HS 578T breast is more than 100 µM; in the assay with HL-60(TB) leukemia, 0.46 µM; in the assay on A498 renal, 13.3 µM; in the assay on MDA-MB-435 it was 0.763 µM; with SF-268 CNS, 4.86 µM; with T-47D breast, 0.667 µM. For the same compound, the GI50 in the assay with HCT-15 colon was 0.54 µM; in the assay on OVCAR-3 ovarian, 2.74 µM. In addition, the TGI in the assay with HS 578T breast, in the assay with HL-60(TB) leukemia, with A498 renal, in the assay with MDA-MB-435, in the assay on SF-268 CNS and with T-47D breast was more than 100 µM each time. Also, the TGI in the assay on HCT-15 colon and in the assay with OVCAR-3 ovarian was more than 100 µM each time.
Regarding `CC1(C)[C@@H](OC(N)=O)C=C[C@]2(C=O)[C@H]3CC[C@]4(C)[C@@H](c5ccc(=O)oc5)[C@@H](Cl)C[C@]4(O)C3=CC[C@@H]12`, the GI50 with HS 578T breast was less than 0.0025 µM; with HL-60(TB) leukemia, 0.00558 µM; in the assay on A498 renal, 0.00594 µM; in the assay on MDA-MB-435, 0.006 µM; in the assay with SF-268 CNS, 0.00301 µM; in the assay on T-47D breast it was 0.00635 µM. Further, the GI50 is 0.00555 µM in the assay with HCT-15 colon and 0.00329 µM with OVCAR-3 ovarian. Moreover, the TGI in the assay with HS 578T breast was determined as 0.0146 µM; in the assay on HL-60(TB) leukemia it was 0.0121 µM; with A498 renal, 0.0177 µM; in the assay on MDA-MB-435, 0.0141 µM; in the assay with SF-268 CNS, 0.00621 µM; in the assay on T-47D breast, 0.0175 µM. Also, the TGI was determined as 0.0129 µM in the assay with HCT-15 colon and 0.00828 µM in the assay with OVCAR-3 ovarian.
In the case of `COc1ccc(-c2c(N)n[nH]c2-c2cc(OC)c(OC)c(OC)c2)cc1`, the GI50 in the assay with HS 578T breast was 0.0782 µM; in the assay with HL-60(TB) leukemia it was 0.0474 µM; in the assay with A498 renal it was 0.0549 µM; in the assay with MDA-MB-435 it was 0.0262 µM; in the assay on SF-268 CNS, 0.676 µM; in the assay on T-47D breast it was 25.3 µM. The GI50 in the assay on HCT-15 colon was 0.285 µM; with OVCAR-3 ovarian, 0.04 µM. Further, the TGI is 0.593 µM with HS 578T breast; 0.516 µM in the assay on HL-60(TB) leukemia; 0.615 µM in the assay with A498 renal; 0.0907 µM with MDA-MB-435; more than 48.4 µM with SF-268 CNS; more than 100 µM in the assay on T-47D breast. The TGI is more than 100 µM in the assay on HCT-15 colon and 0.187 µM in the assay with OVCAR-3 ovarian.
Regarding `NS(=O)(=O)c1ccc(NC(=O)Nc2ccccc2F)cc1`, the TGI in the assay with HS 578T breast, in the assay on HL-60(TB) leukemia, with A498 renal, in the assay on MDA-MB-435, in the assay with SF-268 CNS and in the assay with T-47D breast was more than 100 µM in each case. Besides, the TGI in the assay on HCT-15 colon and in the assay on OVCAR-3 ovarian was more than 100 µM in each case.
`O=C(O)C(=O)CBr`: the GI50 with HS 578T breast was > 100 µM and 29.2 µM; in the assay with HL-60(TB) leukemia, 12.1 µM and 18.9 µM; in the assay with A498 renal, more than 100 µM; in the assay on MDA-MB-435, > 70.4 µM and 18 µM; with SF-268 CNS, > 85.2 µM and 18.3 µM; in the assay on T-47D breast, > 100 µM and 25.5 µM. Moreover, the GI50 with HCT-15 colon is > 35.2 µM and 17.3 µM; in the assay with OVCAR-3 ovarian it was > 21.1 µM and 3.61 µM. Also, the TGI in the assay with HS 578T breast is > 100 µM and 72.4 µM; in the assay with HL-60(TB) leukemia it was 46.1 µM and 45.1 µM; with A498 renal it was more than 100 µM; in the assay with MDA-MB-435, > 100 µM and 32.7 µM; in the assay on SF-268 CNS it was > 100 µM and 32.5 µM; in the assay on T-47D breast, > 100 µM and 64.7 µM. Further, the TGI is > 53.1 µM and 33.1 µM with HCT-15 colon; > 40.2 µM and 13 µM with OVCAR-3 ovarian.
`O=[As]c1ccc(C(=O)c2ccc(Oc3ccccc3)cc2)cc1` (stereo not given): the GI50 was 0.129 µM with HS 578T breast; 0.119 µM with HL-60(TB) leukemia; 0.141 µM in the assay with A498 renal; 0.0396 µM with MDA-MB-435; 0.0344 µM with SF-268 CNS; 0.0316 µM in the assay with T-47D breast. The GI50 in the assay with HCT-15 colon is 0.0362 µM; with OVCAR-3 ovarian, 0.0243 µM. Also, the TGI with HL-60(TB) leukemia was found to be 0.463 µM; in the assay on A498 renal, 0.295 µM; in the assay on MDA-MB-435 it was 0.176 µM; in the assay on SF-268 CNS, 0.129 µM; in the assay on T-47D breast it was 0.156 µM; with HCT-15 colon, 0.15 µM. This compound also came in with a TGI in the assay on OVCAR-3 ovarian of 0.0608 µM.
`O=C1c2ccccc2-c2c1c1ccccc1c(=O)n2-c1ccccc1`: the TGI is more than 87.4 µM with HS 578T breast; more than 86.3 µM in the assay on HL-60(TB) leukemia; 60.7 µM in the assay with A498 renal; more than 100 µM with MDA-MB-435; 52.7 µM with SF-268 CNS; 46.7 µM in the assay with T-47D breast. The TGI in the assay on HCT-15 colon is more than 100 µM; in the assay on OVCAR-3 ovarian it was 34 µM.
On to `Cc1cc(O)cc2c1c(=O)c1ccccc1n2C`, for which the TGI in the assay with HS 578T breast was more than 100 µM; in the assay on HL-60(TB) leukemia it was more than 100 µM; with A498 renal it was more than 100 µM; with MDA-MB-435 it was more than 100 µM; with SF-268 CNS, 84.4 µM; in the assay with T-47D breast it was more than 100 µM. Besides, the TGI with HCT-15 colon and with OVCAR-3 ovarian was more than 100 µM each time.
With `O=C(Nc1cc(-c2cccnc2)nc(NCCCN2CCOCC2)n1)c1cc(Br)cc(C(F)(F)F)c1`, the GI50 in the assay on HS 578T breast is 2.71 µM; with HL-60(TB) leukemia, 2.15 µM; in the assay on A498 renal, 3.43 µM; in the assay with MDA-MB-435, 1.66 µM; in the assay with SF-268 CNS, 2.63 µM; with T-47D breast it was 3.72 µM. Moreover, the figures for the GI50 in the assay on HCT-15 colon and in the assay with OVCAR-3 ovarian were 1.92 µM and 3.7 µM, respectively. The TGI in the assay with HS 578T breast is 8.51 µM; with HL-60(TB) leukemia it was 5.86 µM; in the assay on A498 renal, 13.4 µM; in the assay on MDA-MB-435 it was 3.15 µM; with SF-268 CNS it was 10.4 µM; in the assay on T-47D breast, 16.1 µM. Moreover, the figures for the TGI in the assay on HCT-15 colon and in the assay with OVCAR-3 ovarian were 5.28 µM and 12.8 µM, respectively.
